Data on one molecule can be found in patent publication US6316436A, “Inhibitors of prenyl-protein transferase” (Merck & Co., Inc., priority 1999, dated 2001).

This assay addresses T1, human FPTase (Homo sapiens, UniProt P49354+P49356).
T1 construct: made in house
Description: In vitro inhibition of Ras farnesyl transferase (FPTase inhibition assay). The following applies: 30° C.; 650 nM Ras-CVLS, 100 nM farnesyl diphosphate; recombinant FPTase; read-out: IC50 for inhibitory activity against human FPTase. The assay is classed as biochemical. On the procedure:
In Vitro Inhibition of Ras Farnesyl Transferase
Isoprenyl-protein transferase activity assays are carried out at 30° C. unless noted otherwise. A typical reaction contains (in a final volume of 50 μL): [^3 H]farnesyl diphosphate, Ras protein, 50 mM HEPES, pH 7.5, 5 mM MgCl2, 5 mM dithiothreitol, 10 μM ZnCl2, 0.1% polyethyleneglycol (PEG) (15,000-20,000 mw) and isoprenyl-protein transferase. The FPTase employed in the assay is prepared by recombinant expression as described in Omer, C. A., Kral, A. M., Diehl, R. E., Prendergast, G. C., Powers, S., Allen, C. M., Gibbs, J. B. and Kohl, N. E. (1993) Biochemistry 32:5167-5176. After thermally pre-equilibrating the assay mixture in the absence of enzyme, reactions are initiated by the addition of isoprenyl-protein transferase and stopped at timed intervals (typically 15 min) by the addition of 1 M HCl in ethanol (1 mL). The quenched reactions are allowed to stand for 15 m (to complete the precipitation process). After adding 2 mL of 100% ethanol, the reactions are vacuum-filtered through Whatman GF/C filters. Filters are washed four times with 2 mL aliquots of 100% ethanol, mixed with scintillation fluid (10 mL) and then counted in a Beckman LS3801 scintillation counter. […]

SMILES strings stand for the structures.

Regarding `CCC12CCCCN(C1)C(=O)CCc1cncn1Cc1ccc(C#N)c(c1)Oc1cccc2c1` (racemic) [Example 1, (±) 5H-17-Ethyl-17,22-methano-18,19,20,21,23,24-hexahydro-23-oxo-6,10: 12,16-dimetheno-25H-imidazo[3,4-h]-[1,11,16]oxadiazacyclodocosane-9-carbonitrile], the IC50 (as a rule, the concentration at which inhibition is half-maximal) is at most 10 µM.
